According to the kinase profiling compilation of Christmann-Franck et al. (2016):

How the values were obtained:
Experiment in all cases: KINOMEscan competition binding
Conditions in all cases: compound 1.0 µM
CHEK1 (human) = CHEK1 (human) (UniProt O14757)
RIPK4 (human) = RIPK4 (human) (UniProt P57078)
MAPK6 (human) = MAPK6 (human) (UniProt Q16659)
NTRK2 (human) = NTRK2 (human) (UniProt Q16620)
[1] = test system: KIT (human), P10721 [A829P]
PRKCE (human) = PRKCE (human) (UniProt Q02156)
PLK1 (human) = PLK1 (human) (UniProt P53350)
Chain of PLK1 (human) (P53350 whole entry, looked up): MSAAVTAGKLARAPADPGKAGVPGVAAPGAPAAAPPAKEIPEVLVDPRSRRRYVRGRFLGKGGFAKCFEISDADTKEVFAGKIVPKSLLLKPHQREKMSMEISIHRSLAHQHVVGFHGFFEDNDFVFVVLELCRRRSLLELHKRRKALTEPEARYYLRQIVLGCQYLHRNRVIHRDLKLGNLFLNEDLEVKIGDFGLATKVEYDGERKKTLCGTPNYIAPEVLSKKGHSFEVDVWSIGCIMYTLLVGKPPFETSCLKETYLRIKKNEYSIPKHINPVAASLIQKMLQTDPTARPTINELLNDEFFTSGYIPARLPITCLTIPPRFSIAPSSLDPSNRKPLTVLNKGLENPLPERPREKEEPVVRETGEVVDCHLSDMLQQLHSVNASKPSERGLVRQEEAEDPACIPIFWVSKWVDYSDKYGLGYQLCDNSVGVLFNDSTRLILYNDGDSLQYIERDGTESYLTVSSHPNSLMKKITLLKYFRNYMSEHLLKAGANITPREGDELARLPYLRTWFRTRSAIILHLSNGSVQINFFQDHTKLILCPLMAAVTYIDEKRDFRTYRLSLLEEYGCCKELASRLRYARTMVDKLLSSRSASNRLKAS

YSK4 (human) = YSK4 (human) (UniProt Q56UN5)
MAP3K13 (human) = MAP3K13 (human) (UniProt O43283)
MAP2K2 (human) = MAP2K2 (human) (UniProt P36507)
Chain of MAP2K2 (human) (P36507 whole entry, looked up): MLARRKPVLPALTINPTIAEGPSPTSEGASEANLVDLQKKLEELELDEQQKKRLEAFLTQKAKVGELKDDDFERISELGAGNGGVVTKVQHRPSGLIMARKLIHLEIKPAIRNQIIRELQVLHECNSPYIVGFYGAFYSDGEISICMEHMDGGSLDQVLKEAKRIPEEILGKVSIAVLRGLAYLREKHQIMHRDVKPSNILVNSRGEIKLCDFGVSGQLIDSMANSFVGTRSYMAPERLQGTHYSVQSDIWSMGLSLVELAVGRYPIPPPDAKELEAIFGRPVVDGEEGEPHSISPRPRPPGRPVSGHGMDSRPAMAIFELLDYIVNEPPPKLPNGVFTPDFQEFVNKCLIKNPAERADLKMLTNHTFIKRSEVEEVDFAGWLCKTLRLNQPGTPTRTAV

LATS1 (human) = LATS1 (human) (UniProt O95835)
EPHB4 (human) = EPHB4 (human) (UniProt P54760)
TNK1 (human) = TNK1 (human) (UniProt Q13470)
PKN3 (M.tuberculosis) = PKN3 (M.tuberculosis) (UniProt Q6P5Z2)
[2] = target: TYK2 JH1 catalytic (human) (UniProt P29597)
MAPK4 (human) = MAPK4 (human) (UniProt P31152)
CSNK2A2 (human) = CSNK2A2 (human) (UniProt P19784)
PIP4K2B (human) = PIP4K2B (human) (UniProt P78356)
IGF1R (human) = IGF1R (human) (UniProt P08069)
EPHA3 (human) = EPHA3 (human) (UniProt P29320)
DCLK1 (human) = DCLK1 (human) (UniProt O15075)
[3] = test system: KIT (human), P10721 [D816H]
CDK4 CCND1 (human) = CDK4 CCND1 (human) (UniProt P11802+P24385)
[4] = test system: EGFR (human), P00533 [747-751 del / S ins]
Chain of EGFR (human), P00533 [747-751 del / S ins] (P00533 whole entry, looked up, stated change not applied): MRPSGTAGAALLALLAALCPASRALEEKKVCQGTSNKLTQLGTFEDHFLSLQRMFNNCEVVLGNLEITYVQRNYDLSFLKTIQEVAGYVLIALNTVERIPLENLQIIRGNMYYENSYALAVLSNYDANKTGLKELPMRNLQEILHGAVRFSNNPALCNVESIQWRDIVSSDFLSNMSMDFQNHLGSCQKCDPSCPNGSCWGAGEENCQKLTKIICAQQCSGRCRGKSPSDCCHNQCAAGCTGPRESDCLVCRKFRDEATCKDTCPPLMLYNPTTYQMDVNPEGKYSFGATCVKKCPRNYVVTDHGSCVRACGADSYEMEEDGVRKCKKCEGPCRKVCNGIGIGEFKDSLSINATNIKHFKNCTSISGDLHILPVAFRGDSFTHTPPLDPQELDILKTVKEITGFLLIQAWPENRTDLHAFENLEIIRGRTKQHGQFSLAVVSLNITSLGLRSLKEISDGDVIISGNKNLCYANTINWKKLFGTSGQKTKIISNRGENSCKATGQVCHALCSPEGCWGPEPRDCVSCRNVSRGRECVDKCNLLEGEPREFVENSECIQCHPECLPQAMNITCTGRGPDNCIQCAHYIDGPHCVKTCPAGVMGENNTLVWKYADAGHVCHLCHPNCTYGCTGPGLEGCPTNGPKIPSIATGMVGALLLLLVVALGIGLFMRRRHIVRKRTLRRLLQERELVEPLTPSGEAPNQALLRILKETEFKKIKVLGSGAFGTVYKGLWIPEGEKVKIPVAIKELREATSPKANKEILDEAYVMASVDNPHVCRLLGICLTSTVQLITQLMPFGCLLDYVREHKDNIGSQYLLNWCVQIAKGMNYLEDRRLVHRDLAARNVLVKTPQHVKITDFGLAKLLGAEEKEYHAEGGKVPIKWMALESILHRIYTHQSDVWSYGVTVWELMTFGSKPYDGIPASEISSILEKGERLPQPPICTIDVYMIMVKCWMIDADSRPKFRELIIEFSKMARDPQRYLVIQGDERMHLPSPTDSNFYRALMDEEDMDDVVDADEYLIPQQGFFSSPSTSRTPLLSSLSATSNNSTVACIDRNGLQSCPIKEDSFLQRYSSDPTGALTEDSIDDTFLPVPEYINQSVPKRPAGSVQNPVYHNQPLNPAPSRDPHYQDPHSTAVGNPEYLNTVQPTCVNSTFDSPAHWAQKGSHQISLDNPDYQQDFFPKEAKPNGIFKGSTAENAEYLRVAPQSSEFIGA

CLK1 (human) = CLK1 (human) (UniProt P49759)
LATS2 (human) = LATS2 (human) (UniProt Q9NRM7)
EPHA7 (human) = EPHA7 (human) (UniProt Q15375)
GRK7 (human) = GRK7 (human) (UniProt Q8WTQ7)
RPS6KA1 KD1 (human) = RPS6KA1 KD1 (human) (UniProt Q15418)
MST1R (human) = MST1R (human) (UniProt Q04912)
SRMS (human) = SRMS (human) (UniProt Q9H3Y6)
MAP3K5 (human) = MAP3K5 (human) (UniProt Q99683)
MAP4K4 (human) = MAP4K4 (human) (UniProt O95819)
PDPK1 (human) = PDPK1 (human) (UniProt O15530)
TNK2 (human) = TNK2 (human) (UniProt Q07912)
MAP3K3 (human) = MAP3K3 (human) (UniProt Q99759)
[5] = test system: PIK3CA (human), P42336 [E542K]
ERN1 (human) = ERN1 (human) (UniProt O75460)
Chain of ERN1 (human) (O75460 whole entry, looked up): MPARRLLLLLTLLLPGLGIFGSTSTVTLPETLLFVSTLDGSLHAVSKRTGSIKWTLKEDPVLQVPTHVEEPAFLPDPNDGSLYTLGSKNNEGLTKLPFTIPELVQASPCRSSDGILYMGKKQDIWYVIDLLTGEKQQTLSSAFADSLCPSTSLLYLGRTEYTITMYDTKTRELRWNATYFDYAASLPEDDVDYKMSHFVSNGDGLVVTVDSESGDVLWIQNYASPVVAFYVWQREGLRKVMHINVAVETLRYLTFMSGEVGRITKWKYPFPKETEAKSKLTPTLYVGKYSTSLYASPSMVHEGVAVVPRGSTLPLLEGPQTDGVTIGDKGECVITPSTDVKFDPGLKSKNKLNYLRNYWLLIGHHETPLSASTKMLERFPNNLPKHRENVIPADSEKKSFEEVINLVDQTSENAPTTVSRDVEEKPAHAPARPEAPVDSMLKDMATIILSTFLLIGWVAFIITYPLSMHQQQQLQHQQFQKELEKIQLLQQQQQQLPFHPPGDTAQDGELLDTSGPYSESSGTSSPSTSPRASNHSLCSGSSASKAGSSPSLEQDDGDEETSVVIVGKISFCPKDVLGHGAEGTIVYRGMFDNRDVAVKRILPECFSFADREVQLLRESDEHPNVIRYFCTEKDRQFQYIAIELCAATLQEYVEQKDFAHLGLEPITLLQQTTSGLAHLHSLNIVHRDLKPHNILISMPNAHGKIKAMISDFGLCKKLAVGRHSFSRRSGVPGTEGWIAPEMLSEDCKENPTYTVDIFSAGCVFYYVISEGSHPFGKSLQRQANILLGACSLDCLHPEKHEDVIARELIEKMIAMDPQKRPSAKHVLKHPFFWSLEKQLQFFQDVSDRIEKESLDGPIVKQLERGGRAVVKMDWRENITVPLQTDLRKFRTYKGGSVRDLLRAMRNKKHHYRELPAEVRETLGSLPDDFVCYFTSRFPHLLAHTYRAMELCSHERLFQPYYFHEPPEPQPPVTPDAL

DDR2 (human) = DDR2 (human) (UniProt Q16832)
MAP3K9 (human) = MAP3K9 (human) (UniProt P80192)
Chain of MAP3K9 (human) (P80192 whole entry, looked up): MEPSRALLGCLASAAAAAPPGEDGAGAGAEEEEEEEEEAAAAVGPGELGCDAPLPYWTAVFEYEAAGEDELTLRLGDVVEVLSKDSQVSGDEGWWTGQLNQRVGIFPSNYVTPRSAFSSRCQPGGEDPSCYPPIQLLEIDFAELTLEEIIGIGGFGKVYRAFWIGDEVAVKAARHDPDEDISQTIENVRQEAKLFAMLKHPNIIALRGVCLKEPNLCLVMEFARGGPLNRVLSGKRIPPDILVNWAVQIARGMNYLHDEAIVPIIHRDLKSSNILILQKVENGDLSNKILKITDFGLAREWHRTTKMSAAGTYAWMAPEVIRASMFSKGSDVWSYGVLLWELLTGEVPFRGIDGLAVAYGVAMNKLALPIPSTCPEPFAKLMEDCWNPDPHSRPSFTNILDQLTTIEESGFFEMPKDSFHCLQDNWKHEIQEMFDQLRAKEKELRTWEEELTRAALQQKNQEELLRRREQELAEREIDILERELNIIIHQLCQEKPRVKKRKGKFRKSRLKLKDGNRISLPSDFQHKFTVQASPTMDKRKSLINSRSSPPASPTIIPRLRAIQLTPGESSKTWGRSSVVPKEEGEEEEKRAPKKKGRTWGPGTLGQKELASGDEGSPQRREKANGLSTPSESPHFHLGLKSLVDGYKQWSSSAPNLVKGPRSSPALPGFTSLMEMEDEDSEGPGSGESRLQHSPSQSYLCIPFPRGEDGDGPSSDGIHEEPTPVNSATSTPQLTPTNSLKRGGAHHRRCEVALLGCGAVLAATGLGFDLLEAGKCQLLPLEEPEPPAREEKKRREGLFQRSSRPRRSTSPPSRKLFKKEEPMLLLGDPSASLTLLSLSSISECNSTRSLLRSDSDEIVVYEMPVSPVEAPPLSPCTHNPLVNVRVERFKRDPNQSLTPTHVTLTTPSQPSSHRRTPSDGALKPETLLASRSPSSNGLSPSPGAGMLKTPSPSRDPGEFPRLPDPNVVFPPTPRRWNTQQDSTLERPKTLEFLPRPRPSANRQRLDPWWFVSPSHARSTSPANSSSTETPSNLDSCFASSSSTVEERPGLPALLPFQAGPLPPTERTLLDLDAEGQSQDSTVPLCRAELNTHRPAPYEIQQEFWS

CSNK1D (human) = CSNK1D (human) (UniProt P48730)
TESK1 (human) = TESK1 (human) (UniProt Q15569)

Chain of PRKCE (human) (Q02156 whole entry, looked up): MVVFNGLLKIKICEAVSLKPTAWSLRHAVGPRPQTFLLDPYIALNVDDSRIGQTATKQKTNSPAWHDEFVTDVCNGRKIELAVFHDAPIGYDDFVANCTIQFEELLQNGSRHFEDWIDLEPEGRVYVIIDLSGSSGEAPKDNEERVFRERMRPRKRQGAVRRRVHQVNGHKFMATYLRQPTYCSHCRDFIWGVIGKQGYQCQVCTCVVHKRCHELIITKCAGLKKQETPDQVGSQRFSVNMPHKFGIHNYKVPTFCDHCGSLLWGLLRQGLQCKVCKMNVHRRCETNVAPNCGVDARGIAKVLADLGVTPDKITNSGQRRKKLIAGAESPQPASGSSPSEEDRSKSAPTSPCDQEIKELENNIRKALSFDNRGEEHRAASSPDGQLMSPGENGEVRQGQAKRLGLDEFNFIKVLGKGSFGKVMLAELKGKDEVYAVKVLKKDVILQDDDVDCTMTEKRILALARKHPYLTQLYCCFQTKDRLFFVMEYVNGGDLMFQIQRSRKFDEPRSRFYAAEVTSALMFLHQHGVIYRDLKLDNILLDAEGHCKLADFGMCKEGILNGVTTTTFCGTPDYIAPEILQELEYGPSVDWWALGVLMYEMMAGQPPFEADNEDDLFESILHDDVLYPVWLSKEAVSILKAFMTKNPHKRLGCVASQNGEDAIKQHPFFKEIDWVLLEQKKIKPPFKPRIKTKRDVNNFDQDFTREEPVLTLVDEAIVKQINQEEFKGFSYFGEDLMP

Structure (SMILES): CN(C)C/C=C/C(=O)Nc1cccc(C(=O)Nc2ccc(Nc3nccc(-c4c(-c5ccccc5)nn5ccccc45)n3)cc2)c1
- kinase still bound, per cent of control (CHEK1 (human)): 100%
- kinase still bound, per cent of control (RIPK4 (human)): 100%
- kinase still bound, per cent of control (MAPK6 (human)): 71%
- kinase still bound, per cent of control (NTRK2 (human)): 14%
- kinase still bound, per cent of control [1]: 71%
- kinase still bound, per cent of control (PRKCE (human)): 93%
- kinase still bound, per cent of control (PLK1 (human)): 100%
- kinase still bound, per cent of control (YSK4 (human)): 62%
- kinase still bound, per cent of control (MAP3K13 (human)): 100%
- kinase still bound, per cent of control (MAP2K2 (human)): 88%
- kinase still bound, per cent of control (LATS1 (human)): 95%
- kinase still bound, per cent of control (EPHB4 (human)): 43%
- kinase still bound, per cent of control (TNK1 (human)): 100%
- kinase still bound, per cent of control (PKN3 (M.tuberculosis)): 100%
- kinase still bound, per cent of control [2]: 76%
- kinase still bound, per cent of control (MAPK4 (human)): 94%
- kinase still bound, per cent of control (CSNK2A2 (human)): 100%
- kinase still bound, per cent of control (PIP4K2B (human)): 100%
- kinase still bound, per cent of control (IGF1R (human)): 100%
- kinase still bound, per cent of control (EPHA3 (human)): 65%
- kinase still bound, per cent of control (DCLK1 (human)): 93%
- kinase still bound, per cent of control [3]: 86%
- kinase still bound, per cent of control (CDK4 CCND1 (human)): 79%
- kinase still bound, per cent of control [4]: 3.4%
- kinase still bound, per cent of control (CLK1 (human)): 95%
- kinase still bound, per cent of control (LATS2 (human)): 78%
- kinase still bound, per cent of control (EPHA7 (human)): 100%
- kinase still bound, per cent of control (GRK7 (human)): 86%
- kinase still bound, per cent of control (RPS6KA1 KD1 (human)): 100%
- kinase still bound, per cent of control (MST1R (human)): 100%
- kinase still bound, per cent of control (SRMS (human)): 87%
- kinase still bound, per cent of control (MAP3K5 (human)): 100%
- kinase still bound, per cent of control (MAP4K4 (human)): 9.8%
- kinase still bound, per cent of control (PDPK1 (human)): 100%
- kinase still bound, per cent of control (TNK2 (human)): 100%
- kinase still bound, per cent of control (MAP3K3 (human)): 68%
- kinase still bound, per cent of control [5]: 91%
- kinase still bound, per cent of control (ERN1 (human)): 100%
- kinase still bound, per cent of control (DDR2 (human)): 9%
- kinase still bound, per cent of control (MAP3K9 (human)): 59%
- kinase still bound, per cent of control (CSNK1D (human)): 3.1%
- kinase still bound, per cent of control (TESK1 (human)): 99%
